Assay [1] is filed under the species Rattus norvegicus. Description: Androgenic activity in rat assessed as increase of ventral prostate weight at 0.3 mg (reference value: 18.1 +/- 0.91 mg). The class given is functional, Prostate gland.
The species named for assay [2] is Rattus norvegicus. Description: Androgenic activity in rat assessed as increase of seminal vesicle weight at 0.3 mg (reference value: 11.4 +/- 0.38 mg). The format is functional.
Assay [3] is filed under the species Rattus norvegicus. Description: Myotrophic activity in rat assessed as increase of levator ani weight at 0.3 mg (reference value: 32.2 +/- 1.82 mg). The class given is functional.
The species named for assay [4] is Rattus norvegicus. Description: Androgenic activity in rat assessed as increase in final body weight at 0.3 mg (reference value: 98 g). The class given is functional.
The species entered for assay [5] is Rattus norvegicus. Description: Androgenic activity in rat assessed as increase of ventral prostate weight (reference value: 18.1 +/- 0.91 mg). The format is functional, Prostate gland.
The species named for assay [6] is Rattus norvegicus. Description: Androgenic activity in rat assessed as increase of seminal vesicle weight (reference value: 11.4 +/- 0.38 mg). The format is functional.
For assay [7], the species on record is Rattus norvegicus. Description: Myotrophic activity in rat assessed as increase of levator ani weight (reference value: 32.2 +/- 1.82 mg). The format is functional.
The species entered for assay [8] is Rattus norvegicus. Description: Androgenic activity in rat assessed as increase in final body weight (reference value: 98 g). The format is functional.
For assay [9], the species on record is Rattus norvegicus. The assay is described as follows: Myotrophic activity in rat assessed as increase of levator ani weight at 3 mg (reference value: 32.2 +/- 1.82 mg). The class given is functional.
Assay [10] is filed under the species Rattus norvegicus. The assay is described as follows: Androgenic activity in rat assessed as increase of ventral prostate weight at 3 mg (reference value: 18.1 +/- 0.91 mg). The class given is functional, Prostate gland.
The species entered for assay [11] is Rattus norvegicus. The assay is described as follows: Androgenic activity in rat assessed as increase of ventral prostate weight at 3 mg in presence of testosterone (reference value: 18.1 +/- 0.91 mg). The class given is functional, Prostate gland.
Assay [12] is filed under the species Rattus norvegicus. Description: Androgenic activity in rat assessed as increase of seminal vesicle weight at 3 mg (reference value: 11.4 +/- 0.38 mg). The format is functional.
For assay [13], the species on record is Rattus norvegicus. The assay is described as follows: Androgenic activity in rat assessed as increase of seminal vesicle weight at 3 mg in presence of testosterone (reference value: 11.4 +/- 0.38 mg). The class given is functional.
The species entered for assay [14] is Rattus norvegicus. Description: Myotrophic activity in rat assessed as increase of levator ani weight at 3 mg in presence of testosterone (reference value: 32.2 +/- 1.82 mg). The format is functional.
The species entered for assay [15] is Rattus norvegicus. Description: Androgenic activity in rat assessed as increase in final body weight at 3 mg (reference value: 98 g). The class given is functional.
The species named for assay [16] is Rattus norvegicus. Description: Androgenic activity in rat assessed as increase in final body weight at 3 mg in presence of testosterone (reference value: 98 g). The format is functional.
For assay [17], the species on record is Rattus norvegicus. Description: Antiandrogenic activity in rat assessed as reduction in ventral prostate weight at 3 mg. The format is functional, organism-based. The following applies: Prostate gland.
The species entered for assay [18] is Rattus norvegicus. Description: Antiandrogenic activity in rat assessed as reduction in seminal vesicle weight at 3 mg. The class given is functional, organism-based.
The species entered for assay [19] is Rattus norvegicus. The assay is described as follows: Antimyotrophic activity in rat assessed as reduction in levator ani weight at 3 mg. The class given is functional, organism-based.

Calls of active or inactive are those of the source. No cut-off for these calls is given here.

As for `C[C@]12CC[C@H]3[C@@H](CCC4=CC(=O)CC[C@@]43C)[C@@H]1CC[C@@H]2O` [TESTOSTERONE], the Activity in the assay filed under Rattus norvegicus [1] was 35.3 mg; in the assay listed under Rattus norvegicus [2], 12.9 mg; in the assay listed under Rattus norvegicus [3], 37.8 mg; in the assay filed under Rattus norvegicus [4], 97 g.
As to `CC(=O)O[C@H]1CC[C@H]2[C@@H]3CC[C@H]4CN(Cc5ccccc5)C[C@]4(C)[C@H]3CC[C@]12C`, the Activity in the assay filed under Rattus norvegicus [5] turned out to be 19.4 mg; in the assay filed under Rattus norvegicus [6], 10.7 mg; in the assay listed under Rattus norvegicus [7] it was 24.2 mg; in the assay listed under Rattus norvegicus [8], 89 g.
For `CC(=O)O[C@H]1CC[C@H]2[C@@H]3CC[C@H]4CN(C#N)C[C@]4(C)[C@H]3CC[C@]12C`, the Activity in the assay listed under Rattus norvegicus [9] worked out at 55.8 mg; in the assay listed under Rattus norvegicus [10], 56.1 mg; in the assay filed under Rattus norvegicus [11] it was 61.6 mg; in the assay listed under Rattus norvegicus [12], 33.3 mg; in the assay filed under Rattus norvegicus [13], 40.6 mg; in the assay listed under Rattus norvegicus [14] it was 58.7 mg. The figures for the Activity in the assay listed under Rattus norvegicus [15] and in the assay filed under Rattus norvegicus [16] were 95 g and 99 g, respectively. For the same compound, the inhibition result in the assay listed under Rattus norvegicus [17], in the assay listed under Rattus norvegicus [18] and in the assay listed under Rattus norvegicus [19] was “inactive” throughout.

The values above are taken from ChEMBL document CHEMBL3228017, “Apparent bioisosteric replacement of--S--by NCN: synthesis of N--cyano-2-aza-A-nor-5alpha-androstan-17beta-ol acetate, an aza steroid androgen” (1979).
